Series [1] has as its system M. abscessus Bamboo RM1 (GyrA M129K). Briefly: microbe, parasite or virus in culture. The class given is cell-based, Mycobacterium abscessus.
The subject of series [2] is M. abscessus subsp. abscessus M9. Briefly: microbe, parasite or virus in culture. The class given is cell-based, Mycobacterium abscessus. Particulars: Mycobacteroides abscessus, 72 h.
Series [3] relates to M. abscessus subsp. abscessus K21. Briefly: microbe, parasite or virus in culture. The class given is cell-based, Mycobacterium abscessus. Particulars: Mycobacteroides abscessus, 72 h.
The test system of series [4] is M. abscessus Bamboo RM3 (GyrA D91N). Briefly: microbe, parasite or virus in culture. The class given is cell-based, Mycobacterium abscessus.
The target in another series is T1, human serum albumin (Homo sapiens, UniProt P02768).
T1 construct: purchased Chiral Technologies Ltd., France
T1 sequence (P02768 25-609): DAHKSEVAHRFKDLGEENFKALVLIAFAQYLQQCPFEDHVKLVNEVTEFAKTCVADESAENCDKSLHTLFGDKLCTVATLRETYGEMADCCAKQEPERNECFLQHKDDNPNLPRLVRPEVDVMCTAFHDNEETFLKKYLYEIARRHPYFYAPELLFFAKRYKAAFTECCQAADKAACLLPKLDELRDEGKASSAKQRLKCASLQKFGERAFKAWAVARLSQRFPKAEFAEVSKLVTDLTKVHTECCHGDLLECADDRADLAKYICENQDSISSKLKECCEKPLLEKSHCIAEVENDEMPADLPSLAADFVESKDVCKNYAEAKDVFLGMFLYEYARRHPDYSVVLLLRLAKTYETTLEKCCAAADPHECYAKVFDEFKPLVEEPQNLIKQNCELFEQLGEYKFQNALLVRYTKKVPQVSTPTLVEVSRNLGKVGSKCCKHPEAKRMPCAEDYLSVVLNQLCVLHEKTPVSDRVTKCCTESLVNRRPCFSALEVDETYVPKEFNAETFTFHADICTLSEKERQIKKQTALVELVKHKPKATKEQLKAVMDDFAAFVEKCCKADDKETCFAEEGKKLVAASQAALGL
Briefly: Drug binding to human serum albumin (HSA HPLC column). The class given is in vitro ADME. Particulars: immobilized human serum albumin HPLC column, pH 7.4, read-out: Protein binding (converted).

A short description of the next series: Tolerability in mice. The note with it: tolerated at doses up to. In kind it is in vivo, mouse.
Series [5] can be described thus: AMP (artificial membrane permeability) assay. In kind it is in vitro ADME. The note with it: PAMPA, pH 7.4. The method, then:
An 8% L-a-phosphatidylcholine (EPC) in 1% cholesterol decane solution and a 1.8% EPC in cholesterol decane solution were prepared. The lipid solution was aliquoted into 4 ml capped vials, sealed with parafilm and stored in −20°C freezer. The lipid solution was then transferred from 4 ml vial into a 96-well half area plate (130 μl/well) for daily assay usage. An additional 50 mM phosphate buffer with 0.5% encapsin, pH at 7.4 was prepared. The assay was run by the Biomek FX and Biomek software. The assay procedure is written under the Biomek software. For one batch assay, it can test two 96-well sample plates with at least one standard on each sample plate. The total assay time was about 4 h. 3.5 μl of lipid solution were added to the filler plate, shaken for 12 s, and 250 μl of buffer were added to donor side and 100 μl to the receiver side. The assay plate was shaken for 45 min before adding the compounds. The test compounds (2.5 μl) were added to the donor side. The assay was run as replicates: Assay plates 1 and 2 tested the sample plate 1; assay plates 3 and 4 tested the sample plate 2. The assay plates were then incubated and shaken for 3 h at room temperature. The assay samples were transferred to the HPLC analysis plates and 100 μl of receiver solution were aspirated and transferred to the receiver for analysis. […] Compound concentration was measured by HPLC at different time points.
On the technique in general: PAMPA measures passive passage across an artificial lipid membrane.

Converted amounts (≈) assume the structure as drawn. Like-named read-outs stand apart in the source and are kept apart here. Bounds are passed on as bounds.

As to `COc1cnc2ccc(=O)n(CCN3CCC(NCc4cnc(CO)c(Cl)c4)CC3)c2c1` [EC/11716], the MIC in series [1] was above 100 µM; in series [1] (Mycobacteroides abscessus), above 100 µM; in series [2], 2.9 µM (≈ 1.33 µg/mL); in series [3] it was 3 µM (≈ 1.37 µg/mL); in series [4], above 100 µM; in series [4] (Mycobacteroides abscessus) it was above 100 µM. Besides, the fraction unbound at human serum albumin was 0.505. The tolerated dose result in the series “Tolerability in mice” was “up to 550 mg/kg”. Moreover, the Papp at 3 h in series [5] was 16 ×10⁻⁶ cm/s.

By Papp is commonly meant a coefficient for how fast a substance crosses the barrier. Higher therefore signals fast passage.

For the origin of these results see article PMC8597734 (Antimicrobial Agents and Chemotherapy, 2021).
